Data: US5234903A, “Chemically modified hemoglobin as an effective, stable non-immunogenic red blood cell substitute” (Enzon, Inc., priority 1990, dated 1993)
Values joined by “and” are separate entries in the source; they are usually repeats but may differ in a detail not shown here. Equal values may be shown once. Read-outs that look alike come from different tables or passages of the source.

Tests used:
[1] = Half-life and intravascular Met-Hb in rats after 70 percent exchange transfusion; type: in vivo; settings: rats
Text: Blood circulating time of polyalkylene oxide-modified Hb may, for example, and not by way of limitation, be evaluated by monitoring the concentration of hemoglobin in the plasma fraction (at 540 nm) of blood samples sequentially collected following exchange transfusion with modified Hb. Hemoglobin disappearance may be plotted as a function of time.

rats = assay: Blood pressure, heart rate and breathing in rats after 70 percent exchange transfusion; type: in vivo; settings: 70% exchange transfusion
Text: Acute toxicity studies may be performed in any suitable experimental animal. Preferably, a range of exposures may be tested; for example, by evaluating animals that have received a 50 or 70 percent exchange transfusion as compared to animals that have received a 100 percent exchange transfusion. Vital signs and visual observations should be recorded, and the animals may be sacrificed after a period of time estimated to correspond to one half-life of the hemoglobin formulation being tested. Histological evaluation using standard techniques may be used to determine the presence or absence of toxic effects on tissues including lung, kidney, liver, or brain.
The results of in vivo studies, in which rats were given a 70 percent exchange transfusion of hemoglobin prepared according to Examples I-V or control (native bovine hemoglobin) are shown in Table V (bracketed numbers are values obtained in rats that were not transfused). Note that the breathing rate decreased slightly, and the blood pressure increased by at most about 30-35 percent relative to control, showing a good physiologic response to the exchange transfusion.

[2] = Viscosity and colloid osmotic pressure of PEG-Hb solutions; type: physicochemical; settings: for colloid osmotic pressure: 6 percent (g/dl) product
Text: (§1) The polyalkylene oxide modified hemoglobin may then be chemically characterized using methods known in the art. For example, the oxygen dissociation curve may be determined using standard techniques (for example, Imai et al., 1970, Biochim. Biophys. Acta 200: 189-196) allowing calculation of the P50 value. Additional parameters which would be desirable to measure include the methemoglobin content, the viscosity, the osmolality, the pH, and the Hill constant; the effects of changes in pH on the oxygen saturation curve may be determined as described in Bartels (1971, Blood oxygen dissociation curves: Mammals. in "Respiration and Circulation", Altman and Dittmer, Eds., Federation of American Societies for Experimental Biology, Bethesda).

[3] = Methemoglobin content of PEG-Hb preparations; type: physicochemical; settings: in preparation
Text: as §1

[4] = Oxygen binding: P50 (partial pressure of oxygen at 50% saturation) and Hill coefficient
Method: Hemoglobin constitutes about 90% of the total protein in red blood cells. 100 ml of whole blood is capable of absorbing approximately 21 ml of gaseous oxygen due to the binding ability of hemoglobin. Equally important to the binding of oxygen, hemoglobin is also efficient in releasing the bound oxygen to tissues. The ability of hemoglobin to bind and release oxygen is often quantitatively expressed as the P50, the partial pressure of oxygen which results in fifty percent saturation of hemoglobin.
The resulting modified hemoglobin may then be tested to determine its P50 value so as to confirm that a clinically useful P50 has been achieved. Methods of P50 measurement include standard methods of analysis, such as, for example, methods utilizing the Hemox-Analyzer (TCS Medical Products Co., Huntingdon Valley, Pa.).
Following reduction, the hemoglobin may be reacted with an activated polyalkylene oxide under conditions which maintain the structural integrity of the oxygen binding site. In preferred embodiments of the invention, such conditions consist of a high anion concentration; in a specific embodiment this anion is chloride ion. In preferred embodiments, the chloride ion concentration is at least about 1.0M. […] According to the invention, the activated polyalkylene oxide may have one or more than one functional groups. The degree of modification for each preparation referred to in Table I is approximately 20 percent. This percent modification corresponds to about […] PEG molecules per each molecule of hemoglobin. The percent modification may be calculated according to the number of lysines modified by PEG and is based on a total of 48 surface lysines in bovine hemoglobin. The number may be determined by trinitrobenzene sulfonic acid (TNBS) assay (Habeef et al., 1966, Analyt. Biochem. 14:328-336).
as §1
Purification was carried out using a hollow-fiber ultrafiltration device with M.W. cutoff of 50 kD that is commercially available from American Fluid, Richboro, Pa. The advantage of this device relative to conventional tangential flat ultrafiltration membranes is its easy handling of viscous protein solutions such as the 6% PEG-Hb solution. Following purification, the P50 of the PEG-Hb was determined by a Hemox-Analyzer (TCS Medical Products Co., Huntington Valley, Pa.).

bovine hemoglobin = assay: Reducing agents in bovine hemoglobin solution (deoxy Hb, Met Hb, free iron); type: biochemical; settings: for Free Iron / Met Hb / deoxy Hb: 30 mM agent, 5% bovine hemoglobin, pH 7.4, 4° C., inert atmosphere, 20 hours
Method: 30 mM of each reducing agent tested, including cysteine, glutathione, N-acetyl cysteine, N-acetyl methionine and sodium ascorbate, was added to 5% bovine hemoglobin solution containing 0.lM Na phosphate, 0.1M NaHCO3 and 0.1M NaCl, with pH=7.4 and at 4° C., under an inert atmosphere. 20 hours later, the deoxyhemoglobin (deoxy Hb), Met Hb and free iron concentrations were determined. Met Hb and deoxy Hb concentrations were measured using an OSM3 Hemoximeter (Radiometer) and free iron was determined by the ferrozine assay method (Carter, 1971, Analyt. Biochem. 40:450-458).

[5] = [Cl-] of reaction solution 0.1 M, degree of modification approximately 20 percent
[6] = [Cl-] of reaction solution 0.5 M, degree of modification approximately 20 percent
[7] = [Cl-] of reaction solution 1.0 M, degree of modification approximately 20 percent
[8] = [Cl-] of reaction solution 1.5 M, degree of modification approximately 20 percent
[9] = [Cl-] of reaction solution 2.0 M, degree of modification approximately 20 percent
[10] = degree of modification 3%, 0.15M [Cl-]
[11] = degree of modification 6%, 0.15M [Cl-]
[12] = native, unmodified (footnote of Table VII)
[13] = 30 mM sodium bisulfite, 59% deoxyHb before PEGylation
[14] = 50 mM sodium bisulfite, 63% deoxyHb before PEGylation
[15] = 100 mM sodium bisulfite, 75% deoxyHb before PEGylation
[16] = 175 mM sodium bisulfite, 95-100% deoxyHb before PEGylation
[17] = 0% deoxyHb before PEGylation, BSC-PEG
[18] = 25% deoxyHb before PEGylation, BSC-PEG
[19] = 45% deoxyHb before PEGylation, BSC-PEG
[20] = 61% deoxyHb before PEGylation, BSC-PEG
[21] = 76% deoxyHb before PEGylation, BSC-PEG
[22] = 93% deoxyHb before PEGylation, BSC-PEG
[23] = 0% deoxyHb before PEGylation, SC-PEG
[24] = 20% deoxyHb before PEGylation, SC-PEG
[25] = 35% deoxyHb before PEGylation, SC-PEG
[26] = 50% deoxyHb before PEGylation, SC-PEG
[27] = 70% deoxyHb before PEGylation, SC-PEG
[28] = 90% deoxyHb before PEGylation, SC-PEG
[29] = 95% deoxyHb before PEGylation, SC-PEG

With “Example V: polymerized bovine hemoglobin modified first by BSC-PEG (MW 4600) 2:1, then SC-PEG (MW 5000) 10:1” the Half-life ([1]; 70% exchange transfusion) was 19 h and 18.8 h, the “Met-Hb at Half-life” value ([1]; 70% exchange transfusion) was 12.0% and the “intravascular Met-bHb formation” value ([1]; 70 percent exchange transfusion) was 12%. For the same compound, the Breathing (rats) was 90 min⁻¹, the “Heart Rate” value (rats) was 423 min⁻¹ and the “Mean Arterial Press.” value (rats) was 97 mmHg. The Endotoxin (Endotoxin (LAL test)) was “< .1 EU”, the endotoxins (Endotoxin (LAL test); LAL test, in words) was “free of endotoxins” and the “Osmotic Press.” value [2] was 20 mmHg. For the same compound, the Viscosity [2] was 4.0 cp, the colloid osmolality [2] was 22 mm Hg and the MetHb [3] was 2%. For the same compound, the “Hill coeff.” value ([4]; Examples I-V and control) was 2.2.
For `N[C@@H](CS)C(=O)O` [Cysteine, cysteine], the Free Iron (bovine hemoglobin) was 4.26 µg/dL, the “Met Hb” value (bovine hemoglobin) was 0.8% and the “deoxy Hb” value (bovine hemoglobin) was 97.6%. For the same compound, the “deoxyhemoglobin level, ranking among agents” value (bovine hemoglobin; in words) was “highest levels of deoxyhemoglobin” and the “methemoglobin and free iron level, ranking among agents” value (bovine hemoglobin; in words) was “lowest levels of methemoglobin and free iron”.
“SC-PEG(5000)-bHb: bovine hemoglobin modified with monofunctional SC-PEG of molecular weight 5000” gave a P50 [4, 5] of 22 mm Hg, a P50 [4, 6] of 24 mm Hg and a P50 [4, 7] of 29 mm Hg. The P50 [4, 8] was 30 mm Hg, the P50 [4, 9] was 30 mm Hg and the P50 ([4]; reacted in 0.1M [Cl-], degree of modification 5%) was 24 mm Hg. It also gave a P50 ([4]; reacted in 0.1M [Cl-], degree of modification 10%) of 22 mm Hg, a P50 ([4]; reacted in 0.1M [Cl-], degree of modification 20%) of 22 mm Hg and a P50 ([4]; reacted in 0.5M [Cl-], degree of modification 5%) of 28 mm Hg. The P50 ([4]; reacted in 0.5M [Cl-], degree of modification 10%) was 24 mm Hg, the P50 ([4]; reacted in 0.5M [Cl-], degree of modification 20%) was 24 mm Hg and the P50 ([4]; reacted in 1.0M [Cl-], degree of modification 5%) was 30 mm Hg. The P50 ([4]; reacted in 1.0M [Cl-], degree of modification 10%) was 29 mm Hg and the P50 ([4]; reacted in 1.0M [Cl-], degree of modification 20%) was 29 mm Hg.
In the case of `N[C@@H](CCC(=O)N[C@@H](CS)C(=O)NCC(=O)O)C(=O)O` [GSH, reduced glutathione], the “Met Hb” value (bovine hemoglobin) is reported as 11.9% and the “deoxy Hb” value (bovine hemoglobin) is reported as 9.7%.
“BSC-PEG(6000)-bHb: bovine hemoglobin modified with bifunctional BSC-PEG of molecular weight 6000” showed a P50 [4, 10] of 38.5 mm Hg, a P50 [4, 11] of 36.5 mm Hg and a P50 ([4]; degree of modification 7.3%, 0.15M [Cl-]) of 36.5 mm Hg.
With “BSC-PEG(4600)-bHb: bovine hemoglobin modified with bifunctional BSC-PEG of molecular weight 4600” the P50 [4, 10] was 34 mm Hg, the P50 ([4]; degree of modification 4.5%, 0.15M [Cl-]) was 34 mm Hg and the P50 [4, 11] was 32.5 mm Hg.
With “native stromafree bHb: native stromafree bHb from Biopure, Boston, MA [reference compound]” the “Hill Coefficient” value [4, 12] was 2.3 and the P50 [4, 12] was 28 mmHg.
In the case of “Example IX: bovine hemoglobin deoxygenated with sodium bisulfite, then modified using monofunctionally activated SC-PEG”, the “Hill Coefficient” value [4, 13] is reported as 1.8, the “P50 of PEG-Hb” value [4, 13] is reported as 18.5 mmHg and the “Hill Coefficient” value [4, 14] is reported as 1.8. For the same compound, the “P50 of PEG-Hb” value [4, 14] was 19.0 mmHg, the “Hill Coefficient” value [4, 15] was 2.2 and the “P50 of PEG-Hb” value [4, 15] was 28.0 mmHg. The “Hill Coefficient” value [4, 16] was 2.0 and the “P50 of PEG-Hb” value [4, 16] was 24.0 mmHg.
For “Bifunctional PEG-modified bHb: bovine hemoglobin reacted with BSC-PEG”, the “P50 vs monofunctional PEG-modified bHb” value ([4]; in words) was “higher P50 than monofunctional PEG-modified bHb”.
With `CSCC[C@H](NC(C)=O)C(=O)O` [N-acetyl methionine] the “Met Hb” value (bovine hemoglobin) was 19.6% and the “deoxy Hb” value (bovine hemoglobin) was 0%.
Work on “Example X: bovine hemoglobin deoxygenated by gas exchange, modified with BSC-PEG (M.W. 5000), BSC-PEG:Hb 2.5:1, crosslinked” yielded a colloid osmotic pressure [2] of 20 mmHg, a Viscosity ([2]; 6 percent (g/dl), 37° C.) of 4.5 cp and a Hill coeff. [4, 17] of 1.8. For the same compound, the P50 [4, 17] was 20 mmHg, the Hill coeff. [4, 18] was 1.9 and the P50 [4, 18] was 22 mmHg. For the same compound, the Hill coeff. [4, 19] was 2.0, the P50 [4, 19] was 25 mmHg and the Hill coeff. [4, 20] was 2.3. The P50 [4, 20] was 30 mmHg, the Hill coeff. [4, 21] was 2.3 and the P50 [4, 21] was 31 mmHg. The Hill coeff. [4, 22] was 2.0 and the P50 [4, 22] was 26 mmHg.
For “Example VIII: bovine hemoglobin partially deoxygenated by gas exchange, modified with SC-PEG (M.W. 5141), SC-PEG:Hb 12:1”, the colloid osmotic pressure [2] was 24 mmHg, the Viscosity ([2]; 6 percent (g/dl), 37° C.) was 4.2 cp and the Hill coeff. [4, 23] was 1.7. The P50 [4, 23] was 18 mmHg, the Hill coeff. [4, 24] was 1.7 and the P50 [4, 24] was 18 mmHg. It also gave a Hill coeff. [4, 25] of 1.7, a P50 [4, 25] of 18 mmHg and a Hill coeff. [4, 26] of 2.0. The P50 [4, 26] was 24 mmHg, the Hill coeff. [4, 27] was 2.2 and the P50 [4, 27] was 28 mmHg. For the same compound, the Hill coeff. [4, 28] was 2.0, the P50 [4, 28] was 22 mmHg and the Hill coeff. [4, 29] was 2.0. It also gave a P50 [4, 29] of 22 mmHg.
For `O=C1O[C@H]([C@@H](O)CO)C([O-])=C1O.[Na+]` [Na-Ascorbate, sodium ascorbate], the Free Iron (bovine hemoglobin) was 233.7 µg/dL, the “Met Hb” value (bovine hemoglobin) was 4.1% and the “deoxy Hb” value (bovine hemoglobin) was 96.7%.
“SC-PEG(4000)-bHb: bovine hemoglobin modified with monofunctional SC-PEG of molecular weight 4000” gave a P50 [4, 5] of 24 mm Hg, a P50 [4, 6] of 28 mm Hg and a P50 [4, 7] of 30 mm Hg. It also gave a P50 [4, 8] of 30 mm Hg and a P50 [4, 9] of 30 mm Hg.
With `CC(=O)N[C@@H](CS)C(=O)O` [N-acetyl cysteine] the “Met Hb” value (bovine hemoglobin) was 18.8% and the “deoxy Hb” value (bovine hemoglobin) was 0%.
In the case of “SC-PEG(2000)-bHb: bovine hemoglobin modified with monofunctional SC-PEG of molecular weight 2000”, the P50 [4, 5] is reported as 24 mm Hg, the P50 [4, 6] is reported as 30 mm Hg and the P50 [4, 7] is reported as 32 mm Hg. For the same compound, the P50 [4, 8] was 31 mm Hg and the P50 [4, 9] was 32 mm Hg.
